± gives the uncertainty stated by the source.
Assay: xn = mol fraction of the nth substance listed

Structure (SMILES): CCCCCCCCCC + CC(C)O
- viscosity (293.15 K, 101.32 kPa, x2 = 0.0412): 0.896 ± 0.012 mPa·s
- viscosity (293.15 K, 101.32 kPa, x2 = 0.0998): 0.893 ± 0.012 mPa·s
- viscosity (293.15 K, 101.32 kPa, x2 = 0.161): 0.904 ± 0.012 mPa·s
- viscosity (293.15 K, 101.32 kPa, x2 = 0.2938): 0.916 ± 0.012 mPa·s
- viscosity (293.15 K, 101.32 kPa, x2 = 0.3954): 0.957 ± 0.013 mPa·s
- viscosity (293.15 K, 101.32 kPa, x2 = 0.4988): 1.006 ± 0.013 mPa·s
- viscosity (293.15 K, 101.32 kPa, x2 = 0.5943): 1.095 ± 0.014 mPa·s
- viscosity (293.15 K, 101.32 kPa, x2 = 0.7019): 1.241 ± 0.016 mPa·s
- viscosity (293.15 K, 101.32 kPa, x2 = 0.8012): 1.436 ± 0.019 mPa·s
- viscosity (293.15 K, 101.32 kPa, x2 = 0.9017): 1.759 ± 0.023 mPa·s
- viscosity (293.15 K, 101.32 kPa, x2 = 0.951): 2.014 ± 0.026 mPa·s
- viscosity (298.15 K, 101 kPa, x2 = 0.0571): 0.839 ± 0.007 mPa·s
- viscosity (298.15 K, 101 kPa, x2 = 0.1237): 0.837 ± 0.007 mPa·s
- viscosity (298.15 K, 101 kPa, x2 = 0.1714): 0.838 ± 0.007 mPa·s
- viscosity (298.15 K, 101 kPa, x2 = 0.2709): 0.851 ± 0.007 mPa·s
- viscosity (298.15 K, 101 kPa, x2 = 0.3525): 0.867 ± 0.007 mPa·s
- viscosity (298.15 K, 101 kPa, x2 = 0.4184): 0.888 ± 0.007 mPa·s
- viscosity (298.15 K, 101 kPa, x2 = 0.5253): 0.945 ± 0.008 mPa·s
- viscosity (298.15 K, 101 kPa, x2 = 0.5786): 0.986 ± 0.008 mPa·s
- viscosity (298.15 K, 101 kPa, x2 = 0.6537): 1.059 ± 0.009 mPa·s
- viscosity (298.15 K, 101 kPa, x2 = 0.6971): 1.113 ± 0.009 mPa·s
- viscosity (298.15 K, 101 kPa, x2 = 0.7895): 1.261 ± 0.01 mPa·s
- viscosity (298.15 K, 101 kPa, x2 = 0.8717): 1.457 ± 0.011 mPa·s
- viscosity (298.15 K, 101 kPa, x2 = 0.9099): 1.583 ± 0.012 mPa·s
- viscosity (298.15 K, 101 kPa, x2 = 0.9453): 1.727 ± 0.013 mPa·s
- viscosity (298.15 K, 101.32 kPa, x2 = 0.0412): 0.831 ± 0.012 mPa·s
- viscosity (298.15 K, 101.32 kPa, x2 = 0.0998): 0.827 ± 0.011 mPa·s
- viscosity (298.15 K, 101.32 kPa, x2 = 0.161): 0.847 ± 0.012 mPa·s
- viscosity (298.15 K, 101.32 kPa, x2 = 0.2938): 0.845 ± 0.011 mPa·s
- viscosity (298.15 K, 101.32 kPa, x2 = 0.3954): 0.878 ± 0.012 mPa·s
- viscosity (298.15 K, 101.32 kPa, x2 = 0.4988): 0.916 ± 0.012 mPa·s
- viscosity (298.15 K, 101.32 kPa, x2 = 0.5943): 0.986 ± 0.013 mPa·s
- viscosity (298.15 K, 101.32 kPa, x2 = 0.7019): 1.11 ± 0.015 mPa·s
- viscosity (298.15 K, 101.32 kPa, x2 = 0.8012): 1.273 ± 0.017 mPa·s
- viscosity (298.15 K, 101.32 kPa, x2 = 0.9017): 1.538 ± 0.02 mPa·s
- viscosity (298.15 K, 101.32 kPa, x2 = 0.951): 1.742 ± 0.023 mPa·s
- viscosity (303.15 K, 101.32 kPa, x2 = 0.0412): 0.773 ± 0.011 mPa·s
- viscosity (303.15 K, 101.32 kPa, x2 = 0.0998): 0.768 ± 0.011 mPa·s
- viscosity (303.15 K, 101.32 kPa, x2 = 0.161): 0.785 ± 0.011 mPa·s
- viscosity (303.15 K, 101.32 kPa, x2 = 0.2938): 0.777 ± 0.011 mPa·s
- viscosity (303.15 K, 101.32 kPa, x2 = 0.3954): 0.809 ± 0.011 mPa·s
- viscosity (303.15 K, 101.32 kPa, x2 = 0.4988): 0.836 ± 0.011 mPa·s
- viscosity (303.15 K, 101.32 kPa, x2 = 0.5943): 0.893 ± 0.012 mPa·s
- viscosity (303.15 K, 101.32 kPa, x2 = 0.7019): 0.994 ± 0.013 mPa·s
- viscosity (303.15 K, 101.32 kPa, x2 = 0.8012): 1.127 ± 0.015 mPa·s
- viscosity (303.15 K, 101.32 kPa, x2 = 0.9017): 1.348 ± 0.017 mPa·s
- viscosity (303.15 K, 101.32 kPa, x2 = 0.951): 1.515 ± 0.02 mPa·s
- viscosity (308.15 K, 101 kPa, x2 = 0.0571): 0.757 ± 0.007 mPa·s
- viscosity (308.15 K, 101 kPa, x2 = 0.1237): 0.74 ± 0.006 mPa·s
- viscosity (308.15 K, 101 kPa, x2 = 0.1714): 0.726 ± 0.006 mPa·s
- viscosity (308.15 K, 101 kPa, x2 = 0.2709): 0.735 ± 0.006 mPa·s
- viscosity (308.15 K, 101 kPa, x2 = 0.3525): 0.746 ± 0.007 mPa·s
- viscosity (308.15 K, 101 kPa, x2 = 0.4184): 0.762 ± 0.007 mPa·s
- viscosity (308.15 K, 101 kPa, x2 = 0.5253): 0.8 ± 0.007 mPa·s
- viscosity (308.15 K, 101 kPa, x2 = 0.5786): 0.824 ± 0.007 mPa·s
- viscosity (308.15 K, 101 kPa, x2 = 0.6537): 0.882 ± 0.007 mPa·s
- viscosity (308.15 K, 101 kPa, x2 = 0.6971): 0.909 ± 0.008 mPa·s
- viscosity (308.15 K, 101 kPa, x2 = 0.7895): 1.013 ± 0.008 mPa·s
- viscosity (308.15 K, 101 kPa, x2 = 0.8717): 1.152 ± 0.009 mPa·s
- viscosity (308.15 K, 101 kPa, x2 = 0.9099): 1.246 ± 0.01 mPa·s
- viscosity (308.15 K, 101 kPa, x2 = 0.9453): 1.35 ± 0.011 mPa·s

Structure (SMILES): CC(=O)O.NCCO + O
- viscosity (293.15 K, 101 kPa, x1 = 0.0075): 1.308 ± 0.064 mPa·s
- viscosity (293.15 K, 101 kPa, x1 = 0.0163): 1.512 ± 0.073 mPa·s
- viscosity (293.15 K, 101 kPa, x2 = 0.8718): 7.458 ± 0.39 mPa·s
- viscosity (293.15 K, 101 kPa, x2 = 0.9099): 4.47 ± 0.27 mPa·s
- viscosity (293.15 K, 101 kPa, x2 = 0.9403): 2.88 ± 0.16 mPa·s
- viscosity (293.15 K, 101 kPa, x2 = 0.9641): 2.01 ± 0.1 mPa·s
- viscosity (293.15 K, 101 kPa, x2 = 0.9743): 1.71 ± 0.087 mPa·s
- viscosity (298.15 K, 101 kPa, x1 = 0.0075): 1.17 ± 0.057 mPa·s
- viscosity (298.15 K, 101 kPa, x1 = 0.0163): 1.344 ± 0.065 mPa·s
- viscosity (298.15 K, 101 kPa, x2 = 0.8718): 6.312 ± 0.33 mPa·s
- viscosity (298.15 K, 101 kPa, x2 = 0.9099): 3.84 ± 0.2 mPa·s
- viscosity (298.15 K, 101 kPa, x2 = 0.9403): 2.513 ± 0.13 mPa·s
- viscosity (298.15 K, 101 kPa, x2 = 0.9641): 1.788 ± 0.089 mPa·s
- viscosity (298.15 K, 101 kPa, x2 = 0.9743): 1.512 ± 0.075 mPa·s
- viscosity (303.15 K, 101 kPa, x1 = 0.0075): 1.05 ± 0.053 mPa·s
- viscosity (303.15 K, 101 kPa, x1 = 0.0163): 1.218 ± 0.059 mPa·s
- viscosity (303.15 K, 101 kPa, x2 = 0.8718): 5.448 ± 0.29 mPa·s
- viscosity (303.15 K, 101 kPa, x2 = 0.9099): 3.354 ± 0.15 mPa·s
- viscosity (303.15 K, 101 kPa, x2 = 0.9403): 2.232 ± 0.1 mPa·s
- viscosity (303.15 K, 101 kPa, x2 = 0.9641): 1.584 ± 0.079 mPa·s
- viscosity (303.15 K, 101 kPa, x2 = 0.9743): 1.35 ± 0.064 mPa·s

Structure (SMILES): C1CCCCCCC1 + CCCCCCC
- viscosity (308.15 K, 101 kPa, x2 = 0.1897): 1.125 ± 0.019 mPa·s

Structure (SMILES): CCCCCCCO + CCCCCCO
- viscosity (298.15 K, 101.8 kPa, x2 = 0.1128): 5.786 ± 0.33 mPa·s
- viscosity (298.15 K, 101.8 kPa, x2 = 0.3611): 5.339 ± 0.33 mPa·s
- viscosity (298.15 K, 101.8 kPa, x2 = 0.5306): 5.173 ± 0.33 mPa·s
- viscosity (298.15 K, 101.8 kPa, x2 = 0.6915): 4.875 ± 0.33 mPa·s
- viscosity (298.15 K, 101.8 kPa, x2 = 0.9117): 4.5 ± 0.33 mPa·s
- viscosity (308.15 K, 101.8 kPa, x2 = 0.1128): 4.235 ± 0.33 mPa·s
- viscosity (308.15 K, 101.8 kPa, x2 = 0.3611): 3.946 ± 0.33 mPa·s
- viscosity (308.15 K, 101.8 kPa, x2 = 0.5306): 3.829 ± 0.33 mPa·s
- viscosity (308.15 K, 101.8 kPa, x2 = 0.6915): 3.625 ± 0.33 mPa·s
- viscosity (308.15 K, 101.8 kPa, x2 = 0.9117): 3.347 ± 0.32 mPa·s
- viscosity (318.15 K, 101.8 kPa, x2 = 0.1128): 3.16 ± 0.33 mPa·s
- viscosity (318.15 K, 101.8 kPa, x2 = 0.3611): 2.963 ± 0.32 mPa·s
- viscosity (318.15 K, 101.8 kPa, x2 = 0.5306): 2.879 ± 0.32 mPa·s
- viscosity (318.15 K, 101.8 kPa, x2 = 0.6915): 2.737 ± 0.32 mPa·s
- viscosity (318.15 K, 101.8 kPa, x2 = 0.9117): 2.535 ± 0.32 mPa·s

Source: the CheMixHub viscosity set
